# Measured values taken from publication PMC6097718 (Journal of medicinal chemistry, 2018).
# What was measured:
# [1] = tested on: IGROV1 human EOC xenografts; assay: In vivo efficacy trial with IGROV1 EOC xenografts in SCID mice
# IGROV1 EOC cells = conditions: colony-forming assay; cited from earlier work
# IGROV1 knockdown cells = assay: Growth inhibition in IGROV1 FRα knockdown cells; format: cell-based, human; conditions: up to 1000 nM drug
# [2] = tested on: R1–11-PCFT4 HeLa cells expressing PCFT; assay: Cell proliferation assay, PCFT-expressing HeLa subline R1–11-PCFT4
# [3] = tested on: R1–11-FR2 HeLa cells expressing FRα; assay: Cell proliferation assay, FRα-expressing HeLa subline R1–11-FR2
smiles,measurement,setting,value
Nc1nc2[nH]c(CCCc3ccc(C(=O)N[C@@H](CCC(=O)O)C(=O)O)s3)cc2c(=O)[nH]1 [Compound 1],tumor burden range,"[1]; day 60, folate-deficient diet, iv, 11 Q4dX4 95 (mg/kg)/inj, 1 Q4dX3 32 (mg/kg)/inj",0 to 196 mg
same,acute or long-term toxicities,"[1]; equitoxic dose levels, SCID mice",no acute or long-term toxicities other than completely reversible loss of weight
same,antitumor activity on standard (high folate) diet,[1]; standard folate-replete diet,ablated
same,weight loss or adverse symptoms on standard (high folate) diet,[1]; standard folate-replete diet,No weight losses or other adverse symptoms were observed
same,cell killing,IGROV1 EOC cells,greater than 99%
Nc1nc2[nH]c(CCCCc3ccc(C(=O)N[C@@H](CCC(=O)O)C(=O)O)cc3)cc2c(=O)[nH]1 [Compound 2],growth inhibition upon FRα knockdown,IGROV1 knockdown cells,complete loss of growth inhibition
Nc1nc2[nH]c(CCCCc3csc(C(=O)N[C@@H](CCC(=O)O)C(=O)O)c3)cc2c(=O)[nH]1 [Compound 5],growth inhibition upon FRα knockdown,IGROV1 knockdown cells,complete loss of growth inhibition
"Nc1nc2[nH]c(CCCCc3ccc(C(=O)N[C@@H](CCC(=O)O)C(=O)O)c(F)c3)cc2c(=O)[nH]1 [Compound 8, (4-(4-(2-Amino-4-oxo-4,7-dihydro-3H-pyrrolo[2,3-d]pyrimidin-6-yl)butyl)-2-fluorobenzoyl)-L-glutamic Acid]",growth inhibition upon FRα knockdown,IGROV1 knockdown cells,complete loss of growth inhibition
"Nc1nc2[nH]c(CCCc3ccc(C(=O)N[C@@H](CCC(=O)O)C(=O)O)c(F)c3)cc2c(=O)[nH]1 [Compound 9, (4-(3-(2-Amino-4-oxo-4,7-dihydro-3H-pyrrolo[2,3-d]pyrimidin-6-yl)propyl)-2-fluorobenzoyl)-L-glutamic Acid]",fold IC50 below that for compound 1,[2]; R1–11-PCFT cells,10 fold
same,fold IC50 below that for compound 1,[3]; R1–11-FR2 cells,6 fold
"Nc1nc2[nH]c(CCCCc3cnc(C(=O)N[C@@H](CCC(=O)O)C(=O)O)c(F)c3)cc2c(=O)[nH]1 [Compound 10, (5-(4-(2-Amino-4-oxo-4,7-dihydro-3H-pyrrolo[2,3-d]pyrimidin-6-yl)butyl)-3-fluoropicolinoyl)-L-glutamic Acid]",growth inhibition upon FRα knockdown,IGROV1 knockdown cells,complete loss of growth inhibition
"Nc1nc2[nH]c(CCCc3csc(C(=O)N[C@@H](CCC(=O)O)C(=O)O)c3F)cc2c(=O)[nH]1 [Compound 12, (4-(3-(2-Amino-4-oxo-4,7-dihydro-3H-pyrrolo[2,3-d]pyrimidin-6-yl)propyl)-3-fluorothiophene-2-carbonyl)-L-glutamic Acid]",selectivity for PCFT versus RFC (IC50 R1–11-RFC2/IC50 R1–11-PCFT),[2]; HeLa sublines,~ 3
same,fold reduced IC50 of fluorinated versus nonfluorinated counterpart,[3]; R1–11-FR2 HeLa cells,2–3 fold
